Test results reported in PMC8419995, “In vitro and in vivo efficacy of thiacloprid against Echinococcus multilocularis” (Parasites & Vectors, 2021).

Assays:
[1] = test system: E. multilocularis metacestodes; experiment: In vivo treatment of mice experimentally infected with E. multilocularis metacestodes; parameters: species or system Echinococcus multilocularis; conditions: for Wet weight of the metacestodes: infected BALB/c mice, untreated 6.49 ± 1.18 g
Method: In vitro-grown metacestode vesicles were pressed through a 500 µm mesh and washed three times with sterile PBS. The parasite tissue was then taken up in an equal volume of sterile PBS. Each mouse was intraperitoneally injected with 200 μl suspension. Seven mice were injected with 200 μl PBS as the control group. Twenty-eight infected mice were randomly distributed into four groups (7 mice/group): the untreated group was not administered any drug; the ABZ group was treated with ABZ orally (100 mg/kg/day); and the Thia15 group and Thia30 group received thiacloprid orally (15 mg/kg/day and 30 mg/kg/day). Treatments of mice started 2 weeks post-infection, and treatments were administered daily for 6 weeks. After 6 weeks of treatment, whole blood via the orbital sinus was collected from mice and the animals were euthanized by CO2. Blood samples were incubated at 37 °C for 1 h and centrifuged at 3500 rpm for 10 min at 4 °C. The serum was harvested and stored at –20 °C for IL-2, IL-4, IL-10 and IgE detection. All metacestode tissues were collected, and the total wet weight of metacestodes per mice was determined. Furthermore, the content of cytokines in microcyst fluid was detected by enzyme-linked immunosorbent assay (ELISA). Several metacestode tissue specimens were processed for transmission electron microscopy (TEM) and histopathological experiments.
(§1) Tissues from experimental animals were washed in PBS and fixed in 4% paraformaldehyde at room temperature for […]. On the next day, they were dehydrated, embedded, and sliced into 5-μm sections. After dewaxing and dehydrating, sections were stained with hematoxylin for 2–5 min, and re-stained with eosin for 15 s. They were sealed with neutral gum and observed under a BX51 microscope (Olympus, Tokyo, Japan).
A Periodic Acid Schiff Stain Kit (Solarbio, Beijing, China) was used to show the PAS-positive laminated layer characteristic of E. multilocularis metacestodes. The section (5 μm) was dewaxed in xylene and rehydrated in 100%, 95%, 80%, and 75% alcohol baths. Staining was then carried out according to the kit instructions.

[2] = test system: E. multilocularis metacestodes; experiment: PGI assay (phosphoglucose isomerase release) on metacestode vesicles; format: cell-based, Echinococcus multilocularis
Method: The efficacy of thiacloprid against the E. multilocularis metacestode was evaluated by applying a phosphoglucose isomerase (PGI) assay that measures the release of the enzyme phosphoglucose isomerase upon physical impairment of metacestodes. In brief, medium without phenol red (DMEM, 1% penicillin/streptomycin sulfate, 2 mM L-glutamine) was added to the same volume of vesicles and distributed to 48-well (12–15 per vesicles) plates. Subsequently, metacestodes were incubated for 5 days with different concentrations (0, 0.06, 1.2, 2.5, 5, 10, 20, 40, 80 and 160 μM) of thiacloprid or praziquantel (PZQ), after which PGI release was quantified exactly as described in Stadelmann et al.. Triton X-100 (0.1% in PBS) was applied as a positive control (maximal release of vesicle fluid). Each condition was tested in biological triplicate. After 5 days of incubation, 200 μl medium supernatant was collected from each well and stored at − 20 °C until further measurements were performed. PGI measurements were performed as described earlier, except that an Infinite M200 PRO reader (Tecan, Männedorf, Switzerland) was used to measure the increase in absorbance at 340 nm. PGI activity was calculated using the EC50 calculator (https://www.aatbio.com/tools/ec50-calculator) from the linear regression of the enzyme reaction over time and presented as a percentage relative to the values obtained by treatment of vesicles with 0.1% Triton X-100.

[3] = Toxicity of thiacloprid in vivo (serum biochemistry, blood cells, histopathology); conditions: normal BALB/c mice, 6 weeks; for Alanine aminotransferase / Albumin / Alkaline phosphatase / Aspartate aminotransferase / Blood urea nitrogen / Creatinine / Direct bilirubin / Globulin / Indirect bilirubin / Total bilirubin / Total protein: serum; for Hemoglobin / PLT / RBC / WBC: whole blood
Method: Based on the previous thiacloprid dose concentration, we selected 15 mg/kg and 30 mg/kg thiacloprid concentrations to evaluate the toxicity in vivo [35]. The toxicity of thiacloprid was assessed in normal BALB/c mice. Normal mice were randomly divided into three groups and received the following treatments (6 animals per group): The control group was not administered any drug; the Thia15 group and Thia30 group received thiacloprid orally (15 mg/kg/day and 30 mg/kg/day). After 6 weeks of treatment, blood samples were collected from the orbital sinus of mice under anesthesia before euthanasia, which were preserved in EDTA-K2 anticoagulant tubes for white blood cell (WBC), hemoglobin (Hb) and platelet (PLT) analysis. For assessing biochemical indicators, blood samples were incubated in anticoagulant-free tubes at 37 °C for 1 h, followed by 3500 rpm centrifugation for 10 min. The isolated serum samples were used to detect relative levels of alanine aminotransferase (ALT), aspartate aminotransferase (AST), total bilirubin (TBIL), direct bilirubin (DBIL), indirect bilirubin (IBIL), total protein (TP), albumin (ALB), alkaline phosphatase (ALP), creatinine (CREA) and blood urea nitrogen (BUN). Subsequently, mice were sacrificed for harvesting the liver and kidneys, which were fixed in 4% paraformaldehyde, prepared for hematoxylin–eosin (HE) staining and observed under a Zeiss Vert.A1 microscope.
as §1

N#C/N=C1\SCCN1Cc1ccc(Cl)nc1 [thiacloprid]
PAS staining of laminated layer of metacestodes from treated mice ([1]; 6 weeks oral treatment): only a few laminated layers were observed | HE staining of metacestodes from treated mice ([1]; 6 weeks oral treatment, thiacloprid 15 or 30 mg/kg/day, ABZ 100 mg/kg/day): Considerable vacuoles | Wet weight of the metacestodes ([1]; thiacloprid 15 mg/kg/day orally, 6 weeks (Thia15 group)): 1.63 ± 0.62 g | Wet weight of the metacestodes ([1]; thiacloprid 30 mg/kg/day orally, 6 weeks (Thia30 group)): 1.63 ± 0.61 g | Activity in PGI assay screening ([2]; 20 μM, 5 days and 12 days, active if exceeding 20% relative PGI release): showed activity | EC50 ([2]; Echinococcus multilocularis, 120 h, read-out: EC50 against E. multilocularis metacestode by the PGI assay): 4.54 ± 1.1 µM | Alanine aminotransferase ([3]; 15 mg/kg/day orally): 66.00 ± 5.33 U/L | Albumin ([3]; 15 mg/kg/day orally): 28.95 ± 2.35 g/L | Alkaline phosphatase ([3]; 15 mg/kg/day orally): 57.67 ± 5.43 U/L | Aspartate aminotransferase ([3]; 15 mg/kg/day orally): 164.70 ± 36.71 U/L | Blood urea nitrogen ([3]; 15 mg/kg/day orally): 7.23 ± 1.87 mmol/L | Creatinine ([3]; 15 mg/kg/day orally): 16.08 ± 1.87 μM/L | Direct bilirubin ([3]; 15 mg/kg/day orally): 0.13 ± 0.05 μM/L | Globulin ([3]; 15 mg/kg/day orally): 36.67 ± 4.71 g/L | Indirect bilirubin ([3]; 15 mg/kg/day orally): 0.44 ± 0.17 μM/L | Total bilirubin ([3]; 15 mg/kg/day orally): 0.60 ± 0.10 μM/L | Total protein ([3]; 15 mg/kg/day orally): 65.90 ± 4.76 g/L | Hemoglobin ([3]; 15 mg/kg/day orally): 203.00 ± 11.15 g/L | PLT ([3]; 15 mg/kg/day orally): 613.70 ± 145.00 10^9/L | RBC ([3]; 15 mg/kg/day orally): 11.39 ± 1.48 10^12/L | WBC ([3]; 15 mg/kg/day orally): 11.69 ± 1.30 10^9/L | Alanine aminotransferase ([3]; 30 mg/kg/day orally): 67.50 ± 5.01 U/L | Albumin ([3]; 30 mg/kg/day orally): 29.72 ± 1.49 g/L | Alkaline phosphatase ([3]; 30 mg/kg/day orally): 58.50 ± 7.82 U/L | Aspartate aminotransferase ([3]; 30 mg/kg/day orally): 180.50 ± 45.71 U/L | Blood urea nitrogen ([3]; 30 mg/kg/day orally): 7.15 ± 0.47 mmol/L | Creatinine ([3]; 30 mg/kg/day orally): 15.18 ± 2.44 μM/L | Direct bilirubin ([3]; 30 mg/kg/day orally): 0.19 ± 0.16 μM/L | Globulin ([3]; 30 mg/kg/day orally): 37.77 ± 4.81 g/L | Indirect bilirubin ([3]; 30 mg/kg/day orally): 0.42 ± 0.19 μM/L | Total bilirubin ([3]; 30 mg/kg/day orally): 0.59 ± 0.16 μM/L | Total protein ([3]; 30 mg/kg/day orally): 65.82 ± 4.39 g/L | Hemoglobin ([3]; 30 mg/kg/day orally): 206.0 ± 9.93 g/L | PLT ([3]; 30 mg/kg/day orally): 670.80 ± 150.20 10^9/L | RBC ([3]; 30 mg/kg/day orally): 9.58 ± 0.82 10^12/L | WBC ([3]; 30 mg/kg/day orally): 12.72 ± 1.75 10^9/L | Histopathological examination of liver and kidneys (HE staining) ([3]; 15 and 30 mg/kg/day orally): did not show obvious histopathological changes or injury
